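Grown in 96-well plates, cells were treated for 48 hours with each compound at five concentrations. Insufficient inhibition: endpoint recorded as highest concentration tested. GI50 = concentration required for 50% inhibition of growth.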 Active and inactive are the calls of the source. No stated cut-off is given here; in the data, active = GI50 up to about 1.1 µM and inactive = higher.
How the values were obtained:
Assay in all cases: growth of human tumour cells (NCI), 48 h
[1] = tested on: 786-0
[2] = tested on: A498
[3] = tested on: A549
[4] = tested on: ACHN
[5] = tested on: BT-549
[6] = tested on: CAKI-1
[7] = tested on: CCRF-CEM
[8] = tested on: COLO 205
[9] = tested on: DU-145
[10] = tested on: EKVX
[11] = tested on: HCC 2998
[12] = tested on: HCT-116
[13] = tested on: HCT-15
[14] = tested on: HL-60
[15] = tested on: HOP-62
[16] = tested on: HOP-92
[17] = tested on: HT-29
[18] = tested on: IGROV-1
[19] = tested on: K562
[20] = tested on: KM12
[21] = tested on: LOX IMVI
[22] = tested on: M14
[23] = tested on: MCF7
[24] = tested on: MDA-MB-231
[25] = tested on: MDA-MB-435
[26] = tested on: MDA-N
[27] = tested on: MOLT-4
[28] = tested on: Malme-3M
[29] = tested on: NCI-H226
[30] = tested on: NCI-H23
[31] = tested on: NCI-H460
[32] = tested on: NCI/ADR-RES
[33] = tested on: OVCAR-3
[34] = tested on: OVCAR-4
[35] = tested on: OVCAR-5
[36] = tested on: OVCAR-8
[37] = tested on: PC-3
[38] = tested on: RPMI-8226
[39] = tested on: RXF 393
[40] = tested on: SF-268
[41] = tested on: SF-295
[42] = tested on: SK-MEL-28
[43] = tested on: SK-MEL-2
[44] = tested on: SK-MEL-5
[45] = tested on: SK-OV-3
[46] = tested on: SN12C
[47] = tested on: SNB-19
[48] = tested on: SNB-75
[49] = tested on: SR
[50] = tested on: SW-620
[51] = tested on: T47D
[52] = tested on: TK-10
[53] = tested on: U-251
[54] = tested on: UACC-257
[55] = tested on: UACC-62
[56] = tested on: UO-31
[57] = tested on: SF-539
[58] = tested on: Hs-578T
[59] = tested on: NCI-H522

## Cn1c2c(c3ccccc31)CC(=O)N1CCCC(C1)CC21OCCO1 (stereo not given)
[1]
  GI50: > 100 µM (inactive)
[2]
  GI50: > 100 µM (inactive)
[3]
  GI50: > 100 µM (inactive)
[4]
  GI50: > 100 µM (inactive)
[5]
  GI50: > 100 µM (inactive)
[6]
  GI50: > 100 µM (inactive)
[7]
  GI50: > 100 µM (inactive)
[8]
  GI50: > 100 µM (inactive)
[9]
  GI50: > 100 µM (inactive)
[10]
  GI50: > 100 µM (inactive)
[11]
  GI50: > 100 µM (inactive)
[12]
  GI50: 41.7 µM (inactive)
[13]
  GI50: > 100 µM
[14]
  GI50: > 100 µM (inactive)
[15]
  GI50: > 100 µM (inactive)
[16]
  GI50: > 100 µM (inactive)
[17]
  GI50: > 100 µM (inactive)
[18]
  GI50: > 100 µM (inactive)
[19]
  GI50: > 100 µM (inactive)
[20]
  GI50: > 100 µM (inactive)
[21]
  GI50: > 100 µM (inactive)
[22]
  GI50: > 100 µM (inactive)
[23]
  GI50: > 100 µM (inactive)
[24]
  GI50: > 100 µM (inactive)
[25]
  GI50: > 100 µM (inactive)
[26]
  GI50: 33.5 µM (inactive)
[27]
  GI50: > 100 µM (inactive)
[28]
  GI50: > 100 µM (inactive)
[29]
  GI50: > 100 µM (inactive)
[30]
  GI50: > 100 µM (inactive)
[31]
  GI50: > 100 µM (inactive)
[32]
  GI50: > 100 µM (inactive)
[33]
  GI50: > 100 µM (inactive)
[34]
  GI50: > 100 µM (inactive)
[35]
  GI50: > 100 µM (inactive)
[36]
  GI50: > 100 µM (inactive)
[37]
  GI50: > 100 µM (inactive)
[38]
  GI50: > 100 µM (inactive)
[39]
  GI50: 13.6 µM (inactive)
[40]
  GI50: > 100 µM (inactive)
[41]
  GI50: > 100 µM (inactive)
[42]
  GI50: > 100 µM (inactive)
[43]
  GI50: > 100 µM (inactive)
[44]
  GI50: > 100 µM (inactive)
[45]
  GI50: > 100 µM (inactive)
[46]
  GI50: 38.2 µM (inactive)
[47]
  GI50: > 100 µM (inactive)
[48]
  GI50: > 100 µM (inactive)
[49]
  GI50: > 100 µM (inactive)
[50]
  GI50: > 100 µM (inactive)
[51]
  GI50: > 100 µM (inactive)
[52]
  GI50: > 100 µM (inactive)
[53]
  GI50: > 100 µM (inactive)
[54]
  GI50: > 100 µM (inactive)
[55]
  GI50: > 100 µM (inactive)
[56]
  GI50: > 100 µM (inactive)

## C=C1CC(C)(c2ccc(Nc3nc4ccccc4c4occc34)cc2)OC1=O (stereo not given)
[1]
  GI50: 2.16 µM (inactive)
[2]
  GI50: 18.9 µM (inactive)
[3]
  GI50: 4.52 µM (inactive)
[4]
  GI50: 4.26 µM (inactive)
[5]
  GI50: 2.37 µM (inactive)
[6]
  GI50: 15.8 µM (inactive)
[7]
  GI50: 1.12 µM (active)
[8]
  GI50: 3.59 µM (inactive)
[9]
  GI50: 8.13 µM (inactive)
[10]
  GI50: 12.1 µM (inactive)
[11]
  GI50: 2.32 µM (inactive)
[12]
  GI50: 1.34 µM (inactive)
[13]
  GI50: 1.94 µM
[14]
  GI50: 2.07 µM (inactive)
[15]
  GI50: 12.5 µM (inactive)
[16]
  GI50: 1.95 µM (inactive)
[17]
  GI50: 3.61 µM (inactive)
[19]
  GI50: 4.71 µM (inactive)
[20]
  GI50: 5.97 µM (inactive)
[21]
  GI50: 1.95 µM (inactive)
[22]
  GI50: 2 µM (inactive)
[23]
  GI50: 3.32 µM (inactive)
[24]
  GI50: 1.75 µM (inactive)
[25]
  GI50: 1.91 µM (inactive)
[26]
  GI50: 3.29 µM (inactive)
[27]
  GI50: 1.82 µM (inactive)
[28]
  GI50: 17.2 µM (inactive)
[29]
  GI50: < 0.01 µM (active)
[30]
  GI50: 1.22 µM (inactive)
[31]
  GI50: 14.7 µM (inactive)
[32]
  GI50: 4.44 µM (inactive)
[33]
  GI50: 3.74 µM (inactive)
[34]
  GI50: 1.77 µM (inactive)
[35]
  GI50: 14.1 µM (inactive)
[36]
  GI50: 2.66 µM (inactive)
[37]
  GI50: 4.36 µM (inactive)
[38]
  GI50: 1.69 µM (inactive)
[39]
  GI50: 2.08 µM (inactive)
[40]
  GI50: 2.93 µM (inactive)
[41]
  GI50: 12.8 µM (inactive)
[57]
  GI50: 2 µM (inactive)
[42]
  GI50: 13.9 µM (inactive)
[44]
  GI50: 5.09 µM (inactive)
[45]
  GI50: 10.8 µM (inactive)
[46]
  GI50: 1.93 µM (inactive)
[47]
  GI50: 7.45 µM (inactive)
[48]
  GI50: 1.92 µM (inactive)
[49]
  GI50: 1.63 µM (inactive)
[51]
  GI50: 3.03 µM (inactive)
[52]
  GI50: 4.86 µM (inactive)
[53]
  GI50: 5.33 µM (inactive)
[54]
  GI50: 0.0186 µM (active)

## O=C1NC(=O)C(C(CC(=O)c2ccc(Cl)cc2)c2ccc(Cl)cc2)C(=O)N1 (stereo not given)
[1]
  GI50: > 100 µM (inactive)
[2]
  GI50: > 100 µM (inactive)
[3]
  GI50: > 100 µM (inactive)
[4]
  GI50: > 100 µM (inactive)
[5]
  GI50: > 100 µM (inactive)
[7]
  GI50: 42.2 µM (inactive)
[9]
  GI50: > 100 µM (inactive)
[10]
  GI50: 17.1 µM (inactive)
[11]
  GI50: 6.73 µM (inactive)
[12]
  GI50: 34 µM (inactive)
[13]
  GI50: > 100 µM
[14]
  GI50: > 100 µM (inactive)
[15]
  GI50: > 100 µM (inactive)
[16]
  GI50: 40.4 µM (inactive)
[17]
  GI50: > 100 µM (inactive)
[58]
  GI50: > 100 µM (inactive)
[18]
  GI50: > 100 µM (inactive)
[19]
  GI50: > 100 µM (inactive)
[20]
  GI50: 37.8 µM (inactive)
[21]
  GI50: 54 µM (inactive)
[22]
  GI50: > 100 µM (inactive)
[23]
  GI50: 17.2 µM (inactive)
[24]
  GI50: > 100 µM (inactive)
[25]
  GI50: 89.1 µM (inactive)
[26]
  GI50: 92 µM (inactive)
[27]
  GI50: 74 µM (inactive)
[28]
  GI50: 0.225 µM (active)
[29]
  GI50: > 100 µM (inactive)
[30]
  GI50: > 100 µM (inactive)
[31]
  GI50: > 100 µM (inactive)
[59]
  GI50: > 100 µM (inactive)
[33]
  GI50: 60.4 µM (inactive)
[34]
  GI50: > 100 µM (inactive)
[35]
  GI50: > 100 µM (inactive)
[36]
  GI50: > 100 µM (inactive)
[37]
  GI50: > 100 µM (inactive)
[38]
  GI50: 33.7 µM (inactive)
[40]
  GI50: 36.2 µM (inactive)
[41]
  GI50: > 100 µM (inactive)
[57]
  GI50: 18 µM (inactive)
[42]
  GI50: > 100 µM (inactive)
[43]
  GI50: > 100 µM (inactive)
[44]
  GI50: > 100 µM (inactive)
[46]
  GI50: > 100 µM (inactive)
[47]
  GI50: > 100 µM (inactive)
[48]
  GI50: > 100 µM (inactive)
[49]
  GI50: 35.2 µM (inactive)
[50]
  GI50: > 100 µM (inactive)
[53]
  GI50: > 100 µM (inactive)
[54]
  GI50: > 100 µM (inactive)
[55]
  GI50: > 100 µM (inactive)
[56]
  GI50: > 100 µM (inactive)

Source: ChEMBL document CHEMBL1201862, “PubChem BioAssay data set” (2004)
